These compounds were tested against T1, hSCN3A sodium channels (Homo sapiens, UniProt Q9NY46) (assay: hSCN3A electrophysiology, whole-cell patch-clamp or PatchXpress 7000, estimated IC-50 (Table B)). Settings: estimated IC-50; hSCN3A cells, whole-cell patch-clamp or PatchXpress 7000; read-out: SCN3A EIC-50.
T1 construct: expressed in transfected cells
Type: cell-based
How it was run: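 Stably transfected HEK cells, whole-cell voltage clamp at 22-24° C, manual or PatchXpress 7000. Cells held at empirically determined inactivation V1/2; current evoked by 20 msec step to 0 mV after 8 sec prepulse to V1/2.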

T1 sequence (Q9NY46 whole entry): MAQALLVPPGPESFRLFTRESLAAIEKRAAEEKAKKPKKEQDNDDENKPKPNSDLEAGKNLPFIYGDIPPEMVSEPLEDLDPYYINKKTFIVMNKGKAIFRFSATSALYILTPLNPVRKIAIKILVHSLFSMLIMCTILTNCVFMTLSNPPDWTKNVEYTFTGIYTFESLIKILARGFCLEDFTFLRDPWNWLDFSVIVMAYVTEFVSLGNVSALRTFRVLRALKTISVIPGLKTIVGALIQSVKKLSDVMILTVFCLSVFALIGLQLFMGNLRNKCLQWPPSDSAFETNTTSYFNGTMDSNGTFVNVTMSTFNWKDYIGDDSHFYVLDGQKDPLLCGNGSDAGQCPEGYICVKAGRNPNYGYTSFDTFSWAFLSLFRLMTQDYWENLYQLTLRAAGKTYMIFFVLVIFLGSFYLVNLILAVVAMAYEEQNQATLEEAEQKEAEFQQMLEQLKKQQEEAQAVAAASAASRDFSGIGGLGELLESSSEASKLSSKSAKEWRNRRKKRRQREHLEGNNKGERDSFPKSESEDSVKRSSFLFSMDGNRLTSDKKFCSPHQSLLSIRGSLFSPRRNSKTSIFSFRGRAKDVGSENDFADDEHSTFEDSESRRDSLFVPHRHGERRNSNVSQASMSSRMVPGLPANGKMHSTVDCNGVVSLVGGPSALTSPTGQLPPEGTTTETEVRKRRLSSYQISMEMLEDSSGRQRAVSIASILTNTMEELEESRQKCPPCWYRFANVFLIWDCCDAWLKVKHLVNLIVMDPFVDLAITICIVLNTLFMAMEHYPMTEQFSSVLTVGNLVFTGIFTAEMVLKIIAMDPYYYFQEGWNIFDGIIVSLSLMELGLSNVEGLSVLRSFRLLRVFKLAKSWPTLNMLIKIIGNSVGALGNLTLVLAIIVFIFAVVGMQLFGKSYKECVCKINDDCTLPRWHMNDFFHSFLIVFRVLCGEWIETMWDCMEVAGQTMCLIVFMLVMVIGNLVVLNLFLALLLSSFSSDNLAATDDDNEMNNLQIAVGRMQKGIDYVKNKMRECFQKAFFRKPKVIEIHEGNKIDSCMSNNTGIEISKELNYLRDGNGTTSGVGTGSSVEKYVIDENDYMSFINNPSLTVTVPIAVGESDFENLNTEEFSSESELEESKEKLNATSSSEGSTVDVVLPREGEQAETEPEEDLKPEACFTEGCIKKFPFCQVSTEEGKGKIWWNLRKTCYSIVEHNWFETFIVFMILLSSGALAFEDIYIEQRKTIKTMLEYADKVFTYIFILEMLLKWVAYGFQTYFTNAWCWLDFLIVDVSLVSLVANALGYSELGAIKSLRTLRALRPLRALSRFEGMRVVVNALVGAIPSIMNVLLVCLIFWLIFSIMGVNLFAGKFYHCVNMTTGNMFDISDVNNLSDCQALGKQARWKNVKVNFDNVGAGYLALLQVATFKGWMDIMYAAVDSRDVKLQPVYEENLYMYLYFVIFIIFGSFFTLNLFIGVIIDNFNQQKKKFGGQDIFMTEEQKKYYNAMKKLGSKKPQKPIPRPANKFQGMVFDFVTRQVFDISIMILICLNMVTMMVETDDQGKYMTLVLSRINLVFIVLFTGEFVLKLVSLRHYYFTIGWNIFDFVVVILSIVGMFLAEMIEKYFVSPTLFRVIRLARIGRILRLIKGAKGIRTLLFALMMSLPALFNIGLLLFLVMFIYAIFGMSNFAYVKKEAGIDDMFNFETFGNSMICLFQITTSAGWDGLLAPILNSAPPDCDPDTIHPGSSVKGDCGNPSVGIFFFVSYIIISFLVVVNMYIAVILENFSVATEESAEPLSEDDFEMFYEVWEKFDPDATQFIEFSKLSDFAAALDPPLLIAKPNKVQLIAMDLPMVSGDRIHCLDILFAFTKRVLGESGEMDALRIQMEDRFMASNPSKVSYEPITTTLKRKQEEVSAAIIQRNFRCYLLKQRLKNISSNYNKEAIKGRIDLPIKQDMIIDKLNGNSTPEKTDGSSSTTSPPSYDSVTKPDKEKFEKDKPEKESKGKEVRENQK

`O=C(NCc1ccccc1SC(F)(F)F)c1ccc(S(=O)(=O)Nc2nccs2)cc1` [Example 122, 4-[(1,3-Thiazol-2-ylamino)sulfonyl]-N-{2-[(trifluoromethyl)thio]benzyl}benzamide] and `Cc1ccccc1CNC(=O)c1ccc(S(=O)(=O)Nc2nccs2)cc1` [Example 91, N-(2-methylbenzyl)-4-[(1,3-thiazol-2-ylamino)sulfonyl]benzamide] are within 1.5-fold of each other in IC50: 1300 nM for the first, 1220 nM for the second.

`COC(=O)c1csc(NS(=O)(=O)c2ccc(C(=O)NCc3ccc(C(F)(F)F)cc3)cc2)n1` [Example 17, Methyl 2-({[4-({[4-(trifluoromethyl)benzyl]amino}carbonyl)phenyl]sulfonyl}amino)-1,3-thiazole-4-carboxylate] and `O=C(NCc1ccc(C(F)(F)F)cc1)c1ccc(S(=O)(=O)Nc2nc(C(F)(F)F)cs2)cc1` [Example 4, N-[4-(Trifluoromethyl)benzyl]-4-({[4-(trifluoromethyl)-1,3-thiazol-2-yl]amino}sulfonyl)benzamide] are within 1.5-fold of each other in IC50: 2940 nM for the first, 2530 nM for the second.

Going from `Cc1ccc(Cl)cc1CNC(=O)c1ccc(S(=O)(=O)Nc2nccs2)cc1` [Example 64, N-(5-chloro-2-methylbenzyl)-4-[(1,3-thiazol-2-ylamino)sulfonyl]benzamide] to `Cc1ccc(CNC(=O)c2ccc(S(=O)(=O)Nc3nccs3)cc2)cc1F` [Example 62, N-(3-fluoro-4-methylbenzyl)-4-[(1,3-thiazol-2-ylamino)sulfonyl]benzamide], the IC50 rises from 450 nM to 1020 nM (2.3-fold).

`O=C(NCc1ccc(F)c(F)c1)c1ccc(S(=O)(=O)Nc2nccs2)c(F)c1` [Example 298, N-(3,4-difluorobenzyl)-3-fluoro-4-[(1,3-thiazol-2-ylamino)sulfonyl]benzamide] and `O=C(NCc1ccc(F)c(Cl)c1)c1ccc(S(=O)(=O)Nc2nccs2)c(F)c1` [Example 299, N-(3-chloro-4-fluorobenzyl)-3-fluoro-4-[(1,3-thiazol-2-yl-amino)sulfonyl]benzamide] are within 1.5-fold of each other in IC50: 160 nM for the first, 110 nM for the second.

Going from `O=C(NCc1ccc(C(F)(F)F)c(F)c1)c1ccc(S(=O)(=O)Nc2nccs2)c(Cl)c1` [Example 289, 3-Chloro-N-[3-fluoro-4-(trifluoromethyl)benzyl]-4-[(1,3-thiazol-2-yl-amino)sulfonyl]benzamide] to `O=C(NCc1ccc(F)c(C(F)(F)F)c1)c1ccc(S(=O)(=O)Nc2nccs2)c(Cl)c1` [Example 290, 3-Chloro-N-[4-fluoro-3-(trifluoromethyl)benzyl]-4-[(1,3-thiazol-2-yl-amino)sulfonyl]benzamide], the IC50 rises from 340 nM to 1390 nM (4.1-fold). The first is the more potent here.

Going from `CC(C)(NC(=O)c1ccc(S(=O)(=O)Nc2nccs2)cc1)c1ccc(Cl)cc1` [Example 124, N-[1-(4-chlorophenyl)-1-methylethyl]-4-[(1,3-thiazol-2-ylamino)sulfonyl]benzamide] to `CC(C)(NC(=O)c1ccc(S(=O)(=O)Nc2nccs2)cc1)c1cccc(C(F)(F)F)c1` [Example 125, N-{1-methyl-1-[3-(trifluoromethyl)phenyl]ethyl}-4-[(1,3-thiazol-2-ylamino)sulfonyl]benzamide], the IC50 rises from 1810 nM to 6450 nM (3.6-fold). The first is the more potent here.

`Cc1ccc(OC2CCCN(C(=O)c3ccc(S(=O)(=O)Nc4nccs4)cc3)C2)cc1` (stereo not drawn) [Example 249, 4-{[3-(4-mMethylphenoxy)piperidin-1-yl]carbonyl}-N-1,3-thiazol-2-yl-benzenesulfonamide] and `O=C(c1ccc(S(=O)(=O)Nc2nccs2)cc1)N1CCCC1Cc1cccc(Cl)c1` (stereo not drawn) [Example 279, 4-{[2-(3-Chlorobenzyl)pyrrolidin-1-yl]carbonyl}-N-1,3-thiazol-2-yl-benzenesulfonamide] are within 1.5-fold of each other in IC50: 1660 nM for the first, 2200 nM for the second.

`O=C(NCc1ccc(F)c(C(F)(F)F)c1)c1ccc(S(=O)(=O)Nc2ncc(Cl)s2)cc1F` [Example 353, 4-{[(5-Chloro-1,3-thiazol-2-yl)amino]sulfonyl}-2-fluoro-N-[4-fluoro-3-(trifluoromethyl)benzyl]benzamide] and `O=C(NCc1ccc(OC(F)(F)F)c(F)c1)c1ccc(S(=O)(=O)Nc2ncc(Cl)s2)cc1F` [Example 359, 4-{[(5-Chloro-1,3-thiazol-2-yl)amino]sulfonyl}-2-fluoro-N-[3-fluoro-4-(trifluoromethoxy)benzyl]benzamide] are within 1.5-fold of each other in IC50: 220 nM for the first, 170 nM for the second.

`O=C(NCc1ccc(F)cc1Cl)c1ccc(S(=O)(=O)Nc2nccs2)cc1` [Example 95, N-(2-chloro-4-fluorobenzyl)-4-[(1,3-thiazol-2-ylamino)sulfonyl]benzamide] and `O=C(NCc1cccc(Cl)c1Cl)c1ccc(S(=O)(=O)Nc2nccs2)cc1` [Example 97, N-(2,3-dichlorobenzyl)-4-[(1,3-thiazol-2-ylamino)sulfonyl]benzamide] cannot be ordered by IC50: greater than 100 nM for the first, 640 nM for the second.

`O=C(NCc1ccc(C(F)(F)F)c(F)c1)c1ccc(S(=O)(=O)Nc2nccs2)cn1` [Example 340, N-[3-fluoro-4-(trifluoromethyl)benzyl]-5-[(1,3-thiazol-2-ylamino)sulfonyl]pyridine-2-carboxamide] and `O=C(NCc1ccc(C(F)(F)F)c(F)c1)c1ccc(S(=O)(=O)Nc2ncns2)cc1` [Example 323, N-[3-fluoro-4-(trifluoromethyl)benzyl]-4-[(1,2,4-thiadiazol-5-ylamino)sulfonyl]benzamide] are within 1.5-fold of each other in IC50: 280 nM for the first, 190 nM for the second.

`O=C(NCc1ccc(OC(F)(F)F)cc1)c1ccc(S(=O)(=O)Nc2ncc(Cl)s2)cc1` [Example 45, 4-{[(5-Chloro-1,3-thiazol-2-yl)amino]sulfonyl}-N-[4-(trifluoromethoxy)benzyl]benzamide] and `O=C(NCc1ccc(F)c(OC(F)(F)F)c1)c1ccc(S(=O)(=O)Nc2ncc(Cl)s2)cc1` [Example 32, 4-{[(5-Chloro-1,3-thiazol-2-yl)amino]sulfonyl}-N-[4-fluoro-3-(trifluoromethoxy)benzyl]benzamide] are the same in IC50: 70 nM for the first, 70 nM for the second.

Compared with `O=C(NCc1cccc(-n2cccn2)c1)c1ccc(S(=O)(=O)Nc2nccs2)cc1` [Example 59, N-[3-(1H-pyrazol-1-yl)benzyl]-4-[(1,3-thiazol-2-ylamino)sulfonyl]benzamide], `COc1ccc(CNC(=O)c2ccc(S(=O)(=O)Nc3nccs3)cc2)cc1Cl` [Example 405, N-(3-chloro-4-methoxybenzyl)-4-[(1,3-thiazol-2-ylamino)sulfonyl] benzamide] is 28-fold lower in IC50: 1690 nM for the first, 60 nM for the second. The second is the more potent here.

`O=C(NCc1ccc(OC(F)(F)F)cc1)c1ccc(S(=O)(=O)Nc2nccs2)cc1F` [Example 330, 2-Fluoro-4-[(1,3-thiazol-2-ylamino)sulfonyl]-N-[4-(trifluoromethoxy)benzyl]benzamide] and `O=C(NCc1ccc(OC(F)(F)F)c(F)c1)c1ccc(S(=O)(=O)Nc2nccs2)cc1F` [Example 328, 2-Fluoro-N-[3-fluoro-4-(trifluoromethoxy)benzyl]-4-[(1,3-thiazol-2-ylamino)sulfonyl] benzamide] are within 1.5-fold of each other in IC50: 130 nM for the first, 120 nM for the second.

Going from `O=C(NCCc1ccc(C(F)(F)F)cc1)c1ccc(S(=O)(=O)Nc2nccs2)cc1` [Example 101, 4-[(1,3-Thiazol-2-ylamino)sulfonyl]-N-{2-[4-(trifluoromethyl)phenyl]ethyl}benzamide] to `O=C(NCc1ccc(C(F)(F)F)cc1)c1ccc(S(=O)(=O)Nc2nccs2)nc1` [Example 417, 6-[(1,3-Thiazol-2-ylamino)sulfonyl]-N-[4-(trifluoromethyl)benzyl]nicotinamide], the IC50 falls from 570 nM to 210 nM (2.7-fold).

First: O=C(NCc1ccc(C(F)(F)F)cc1)c1ccc(S(=O)(=O)Nc2ncc(Cl)s2)cc1Cl [Example 338, 2-Chloro-4-{[(5-chloro-1,3-thiazol-2-yl)amino]sulfonyl}-N-[4-(trifluoromethyl)benzyl] benzamide]
Second: O=C(NCc1ccc(F)c(F)c1)c1ccc(S(=O)(=O)Nc2ncc(Cl)s2)cc1 [Example 33, 4-{[(5-Chloro-1,3-thiazol-2-yl)amino]sulfonyl}-N-(3,4-difluorobenzyl)benzamide]
The IC50 of the first is 7.1-fold higher: 1070 nM for the first, 150 nM for the second. The second is the more potent here.

Compared with `O=C(NCc1ccc(F)c(Cl)c1)c1ccc(S(=O)(=O)Nc2nccs2)c(Cl)c1` [Example 294, 3-Chloro-N-(3-chloro-4-fluorobenzyl)-4-[(1,3-thiazol-2-yl-amino)sulfonyl]benzamide], `O=C(NCc1ccc(F)c(C(F)(F)F)c1)c1ccc(S(=O)(=O)Nc2ncc(Cl)s2)c(Cl)c1` [Example 370, 3-Chloro-4-{[(5-chloro-1,3-thiazol-2-yl)amino]sulfonyl}-N-[4-fluoro-3-(trifluoromethyl)benzyl]benzamide] is 1.5-fold lower in IC50: 1840 nM for the first, 1220 nM for the second. The second is the more potent here.

Compared with `O=C(NCCOc1ccccc1Cl)c1ccc(S(=O)(=O)Nc2nccs2)cc1` [Example 148, N-[2-(2-chlorophenoxy)ethyl]-4-[(1,3-thiazol-2-ylamino)sulfonyl]benzamide], `N#Cc1ccc(CNC(=O)c2ccc(S(=O)(=O)Nc3nccs3)cc2)cc1` [Example 416, N-(4-cyanobenzyl)-4-[(1,3-thiazol-2-ylamino)sulfonyl] benzamide] is 2.9-fold lower in IC50: 2500 nM for the first, 860 nM for the second. The second is the more potent here.

Going from `O=C(NCc1ccc(OC(F)(F)F)c(F)c1)c1ccc(S(=O)(=O)Nc2ncns2)c(F)c1` [Example 318, 3-Fluoro-N-[3-fluoro-4-(trifluoromethoxy)benzyl]-4-[(1,2,4-thiadiazol-5-ylamino)sulfonyl]benzamide] to `CC(C)(C)CCNC(=O)c1ccc(S(=O)(=O)Nc2ncc(Cl)s2)c(F)c1` [Example 389, 4-{[(5-Chloro-1,3-thiazol-2-yl)amino]sulfonyl}-N-(3,3-dimethylbutyl)-3-fluorobenzamide], the IC50 rises from 140 nM to 610 nM (4.4-fold).

Going from `O=C(NCc1ccc(C(F)(F)F)cc1)c1ccc(S(=O)(=O)Nc2ccn[nH]2)cc1` [Example 24, 4-[(1H-Pyrazol-5-ylamino)sulfonyl]-N-[4-(trifluoromethyl)benzyl]benzamide] to `O=C(Nc1ccn(Cc2ccc(Cl)cc2)n1)c1ccc(S(=O)(=O)Nc2nccs2)cc1` [Example 308, N-[1-(4-chlorobenzyl)-1H-pyrazol-3-yl]-4-[(1,3-thiazol-2-ylamino)sulfonyl]benzamide], the IC50 falls from greater than 10000 nM to 320 nM. The second is the more potent here.

`O=C(c1ccc(S(=O)(=O)Nc2nccs2)cc1)N(Cc1ccccc1)[C@H]1CCCC[C@H]1CO` [Example 245, N-benzyl-N-[(1S,2R)-2-(hydroxymethyl)cyclohexyl]-4-[(1,3-thiazol-2-ylamino)sulfonyl]benzamide] was tested, and the IC50 was 2220 nM.
